Laboratory results: article PMC9823006 (Nature Communications, 2023)
Where “and” joins values, the source holds several entries; their conditions need not be identical. Equal values may be shown once. Read-outs that look alike come from different tables or passages of the source.

Columns and labels:
Kal^Sec14 [1] = biological target: T1, Kal^Sec14 (Rattus norvegicus, UniProt P97924, N62Y/T46S); assay: NMR chemical shift perturbation (CSP) titration, 1H-15N HSQC; format: binding
T1 construct: 19.4 kDa); His6 (TEV-cleavable) (N, cleaved yes); made in house; host or cells: E. coli BL21(DE3)
Procedure: (§1) ^1H-^15N HSQC spectra of the uniformly ^15N-labeled Kal^bSec14 and Kal^Sec14 were recorded at 25 °C on an Agilent VNMRS 800 MHz (^1H) spectrometer equipped with a cryogenic probe. ^1H-^15N HSQC spectra of the uniformly ^15N-labeled Kal^bSec14 mutants were recorded using the TopSpin software (https://www.bruker.com/en/products-and-solutions/mr/nmr-software/topspin.html) at 25 °C on a Bruker Avance NEO 600 MHz spectrometer equipped with a cryogenic probe. All detergents and lipids used in this study were purchased from Cube Biotech Inc. (Wayne, Pennsylvania) and Avanti Polar Lipids, Inc. (Alabaster, Alabama), respectively; details are listed in Supplementary Table 2. After collecting an initial protein-only spectrum with a starting protein concentration of 0.4 mM, each detergent or lipid was dissolved in the same NMR buffer and gradually added to the protein until no further CSP was observed. Each series usually comprised 8-12 titration points, with ligand concentrations ranging from 0 to 8 mM and final protein:ligand ratios from 1:7 to 1:25 (the protein concentration in each mixture during titration was confirmed by UV-vis absorbance at 280 nm). The HSQC spectrum was recorded for each titration point using the same instrument setup as that of the apo protein. All spectra were processed with NMRPipe[59], and peak heights and locations were analyzed in CcpNmr Analysis[60].
(§2) For each titration series, observed CSPs for a single amino acid residue were calculated using the combined shift change (Δδ) of the backbone amide nitrogen and proton based on the equation △δ(ppm)=[△δH2+(α⋅△δN)^2] , where ΔδH and ΔδN are the ^1H and ^15N chemical shift differences between the free and bound states, respectively, and α denotes the chemical shift scaling factor for ^15N[63].
(§3) In each titration series, the peaks for all residues were ranked based on the CSP observed upon titration at the highest ligand concentration. […] The well-resolved and non-overlapped CSPs, usually including most of the 2σ CSPs and some of the 1σ CSPs, were then plotted as a function of the ligand concentration and the dissociation constant (KD) was extracted by nonlinear least-square fitting of the following equation: △δobs=△δmax(KD+[L]t+[P]t)−(KD+[L]t+[P]t)^2−4[L]t[P]t/2[P]t , where [P]t and [L]t are the total protein and ligand concentrations, respectively, and △δmax is the chemical shift difference at saturation. The bound fraction plotted as the y-axis in the Figures was defined as △δobs/△δmax based on the average of the normalized CSPs from all the selected peaks. Titration data for each residue and each peak used for KD calculations are provided in the Source Data file.

KalbSec14 [2] = biological target: T2, KalbSec14 (Rattus norvegicus, UniProt P97924, N62Y/T46S); assay: as above; format: binding
T2 construct: His6 (TEV-cleavable) (N, cleaved yes); made in house; host or cells: E. coli BL21(DE3)
Procedure: as §1, §2, §3

KalbSec14 [3] = biological target: T2, KalbSec14; assay: Isothermal titration calorimetry (preliminary); format: binding; conditions: data not shown; authors' response in peer review file; read-out: estimated KD from preliminary ITC data
Kal^cSec14 = conditions: previous studies; cited from earlier work
KalbSec14 [4] = biological target: T2, KalbSec14; assay: Liposome flotation binding assay (Accudenz gradient, Western blot)
Procedure: Unilamellar liposomes formed by mixing synthetic dioleoyl phospholipids and cholesterol in proportions mimicking the membranes of the trans-Golgi network (Golgi-mixture) were incubated with Kal^bSec14. An Accudenz gradient was used to separate liposome-bound proteins, which were recovered from the top of the gradient (fraction 1), from unbound proteins, which remained at the bottom (fraction 4). Protein levels in each fraction were analyzed by Western blotting with an antibody to the Sec14 domain of Kalirin.
(§4) The synthetic and natural lipids used in flotation assays were purchased from Avanti Polar Lipids, Inc. (Supplementary Table 2). All powdered lipids were dissolved in chloroform per the manufacturer’s instructions. Liposomes were prepared as previously described. […] Individual test lipids were dried together with the control lipid mix under a nitrogen stream and lyophilized overnight. Each dried lipid film was reconstituted to a final concentration of 1 mM in HN buffer containing 20 mM HEPES (pH 7.4) and 150 mM NaCl. Each final lipid mixtures consisted of 52% DOPC, 20% DOPE, 5% DOPS, 15% cholesterol and 8% tested lipid; inclusion of a trace amount of fluorescent lipid (Liss Rhod PE) allowed for localization of liposomes following gradient fractionation (see below). Each lipid mixture underwent five freeze-thaw cycles separated by vigorous vortexing each time it was thawed. Using a mini-extruder, unilamellar liposomes were prepared by passing each lipid mixture 21 times through a polycarbonate membrane of 100-nm pore size. Hydrated lipid mixtures were stored at −20 °C for up to 1 month; liposomes were freshly prepared for each experiment.
(§5) Flotation assays were conducted following the protocol previously described. Accudenz (Accurate Chemical and Scientific Corp., Westbury, NY) solutions (80 and 20% weight/vol) were prepared in HN buffer. To remove any particulate material, the protein to be tested was first centrifuged at 436,000 g at 4 °C for 15 min in a TL-100 ultracentrifuge using a Beckman TLA100.2 fixed angle rotor. Freshly prepared unilamellar liposomes (50 μl) were combined with 0.2 μg of the centrifuged protein and incubated at room temperature for 30 min. The entire liposome/protein mixture was then combined with 50 μl of 80% Accudenz at the bottom of an ultracentrifuge tube and carefully mixed to completion by pipetting. The resulting mixture was overlayered with […] of 20% Accudenz and then with 50 μl of HN buffer. Samples were centrifuged at 259,000 g at 4 °C for 30 min in the same ultracentrifuge using a Beckman TLS55 swinging bucket rotor. Gradients were then divided into four 100-μl fractions, which were carefully collected from the bottom of the tube using gel loading micropipette tips. Each fraction was analyzed for liposome and protein content using spectrophotometry (546-nm excitation/571-nm emission) and Western blot, respectively. Only those assays with at least 90% of the Liss Rhod PE marker recovered in the top fraction (fraction 1) were used for Western bloting analysis.
(§6) For Western bloting analysis, equal aliquots of each gradient fraction were denatured in 1× Laemmli sample buffer, fractionated on 15% acrylamide gels, and transferred to PVDF membranes. The protein content was detected using a custom-made rabbit antibody to the Sec14 domain of Kalirin (CT302[69], 1:3000) and an HRP-tagged goat anti-rabbit IgG (H + L) secondary antibody (catalog # 31460, 1:6000; ThermoFisher Scientific). SuperSignal West chemiluminescent substrate (Thermo Scientific) and a Syngene PXi digital imaging system (Synoptics Group) were used to visualize blots, with exposures adjusted to be in the linear range.

Kal^Sec14 [5] = biological target: T1, Kal^Sec14; assay: as above; conditions: Suppl. Fig. 9b,c
Procedure: as §4, §5
as §6, with “range. After background subtraction, bands were quantified using the GeneSys software provided with the imaging system, and data were represented as a proportion of total protein recovered. Uncropped blots, quantification of each data point and exact P-values are provided in the Source Data file. […]” for “range.”
a. Representative Western blots from flotation assays with Kal Sec14 alone (Control), and Kal Sec14 with the control lipid mix (Lipo) or with the lipid mix containing the indicated additional lipid. After binding and separation of liposome bound Kal Sec14 from unbound Kal Sec14 on Accudenz gradients, the protein content of four gradient fractions was dete rmined by immunoblot; liposomes were recovered from the top fraction (fraction 1). Source data are […]

α-TTP = biological target: α-TTP; set-up: method as in earlier work; conditions: quoted by reviewer as specific binding; ref 1 Panagabko, C. et al. Biochemistry 42, 6467–74 (2003); cited from earlier work
[6] = construct without Ex1B front peptide, NMR titration, mean ± S.D. over residues, 25 °C, read-out: KD
[7] = NMR titration, two-state binding model, mean ± S.D. of CSP data for individual residues, 25 °C, read-out: KD
[8] = source data of the global fitting, S.D. in the next column, read-out: KD, Ave of residue peaks
[9] = mean of independent experiments, normalized to total protein recovered, test lipid 8% of liposome lipid
[10] = average, biological replication ≥ 3
[11] = individual experiments (Exp. 1-4)

CCCCCCCCCCCCCCOP(=O)([O-])OCC[N+](C)(C)C [FC14, tetradecylphosphocholine]
Kd (Kal^Sec14 [1]; [6]): 35.6 ± 7.2 µM | Kd (Kal^Sec14 [1]; read-out: KD of FC14 binding to KalSec14, Ave, average over residue peaks 1-24): 35.6 µM | Kd (Kal^Sec14 [1]; read-out: KD of FC14 binding to KalSec14, fit of individual residue peak, residue peaks 1-24, ligand concentrations given in mM): 47.7 µM and 39.3 µM (2×) and 55.2 µM and 45.5 µM and 35.6 µM (3×) and 25.3 µM and 26.6 µM and 37.4 µM (4×) and 32.3 µM (3×) and 33.9 µM (3×) and 27.9 µM (2×) and 41.2 µM and 24.1 µM | Kd (KalbSec14 [2]; [7]): 17.1 ± 4.9 µM | Kd (KalbSec14 [2]; [8]): 17.1 µM | Kd (KalbSec14 [3]): ~30 µM

L-α-phosphatidylinositol-4-phosphate [PI4P]
interaction of Kal^cSec14 with liposomes containing the lipid (Kal^cSec14): specifically interacts | binding of Kal^bSec14 to liposomes containing the lipid (KalbSec14 [4]; Golgi-mixture liposomes with 8% test lipid, result in words): does not interact | Fraction 1 protein content (top fraction, liposome-bound), densitometry, Ave. (KalbSec14 [4]; [9]): 0.0251 | Fraction 2 protein content, densitometry, Ave. (KalbSec14 [4]; [9]): 0.0079 | Fraction 3 protein content, densitometry, Ave. (KalbSec14 [4]; [9]): 0.11 | Fraction 4 protein content (bottom fraction, unbound), densitometry, Ave. (KalbSec14 [4]; [9]): 0.86 | Fraction 4 protein content (bottom fraction, unbound), densitometry (KalbSec14 [4]; single experiments, normalized to total protein recovered, test lipid 8% of liposome lipid): 0.87 and 0.90 and 0.84 and 0.91 and 0.78 | Densitometry values for the Western blots, Fraction 1, Ave. (Kal^Sec14 [5]; [10]): 0.06 | Densitometry values for the Western blots, Fraction 2, Ave. (Kal^Sec14 [5]; [10]): 0.02 | Densitometry values for the Western blots, Fraction 3, Ave. (Kal^Sec14 [5]; [10]): 0.13 | Densitometry values for the Western blots, Fraction 4, Ave. (Kal^Sec14 [5]; [10]): 0.79 | Densitometry values for the Western blots, Fraction 1 (Kal^Sec14 [5]; [11]): 0.08 and 0.06 and 0.0331 | Densitometry values for the Western blots, Fraction 2 (Kal^Sec14 [5]; [11]): 0.00889 and 0.05 and 0.0021 | Densitometry values for the Western blots, Fraction 3 (Kal^Sec14 [5]; [11]): 0.04 and 0.22 and 0.13 | Densitometry values for the Western blots, Fraction 4 (Kal^Sec14 [5]; [11]): 0.87 and 0.67 and 0.84

Cc1c(C)c2c(c(C)c1O)CC[C@@](C)(CCC[C@H](C)CCC[C@H](C)CCCC(C)C)O2 [α-tocopherol]
Kd (α-TTP): 0.025 µM

CCCCCCCCCCCCOP(=O)([O-])OCC[N+](C)(C)C [FC12, dodecylphosphocholine]
Kd (Kal^Sec14 [1]; [6]): 514 ± 66 µM | Kd (Kal^Sec14 [1]; read-out: KD of FC12 binding to KalSec14, Ave, average over residue peaks 1-20): 514 µM | Kd (Kal^Sec14 [1]; read-out: KD of FC12 binding to KalSec14, fit of individual residue peak, residue peaks 1-20, ligand concentrations given in mM): 498 µM and 470 µM and 575 µM and 487 µM (2×) and 514 µM and 590 µM and 540 µM and 542 µM and 537 µM and 496 µM (2×) and 477 µM and 505 µM and 512 µM and 511 µM and 332 µM and 481 µM and 555 µM and 685 µM | Kd (KalbSec14 [2]; [7]): 245 ± 36 µM | Kd (KalbSec14 [2]; [8]): 245 µM | Kd (KalbSec14 [2]; source data of the global fitting, peaks numbered, residues not named, read-out: KD fitted for individual residue peaks): 198 µM and 290 µM and 295 µM and 203 µM and 213 µM and 217 µM and 232 µM and 242 µM and 245 µM and 277 µM and 286 µM | Kd (KalbSec14 [3]): ~500 µM
